Laboratory results published in US20050245399A1, “Pyrazole derivatives as herbicidal compositions containing them” (ISHIHARA SANGYO KAISHA, LTD., priority 2004, published 2005).

Legend:
Assay type in all cases: in vivo
[1] = system: japanese ribbon wapato (Sagittaria pygmaea: SA GPY); test: Test Example 3 water application herbicidal activity (paddy), SAGPY; conditions: 63 g a.i./ha, water application under submerged condition, tubers planted, visually observed 14th day after application; 0 = untreated control, 100 = complete kill
Procedure, shortened: (§1)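 Compound, as diluted wettable powder or emulsifiable concentrate, was pipetted into flood water at a set active-ingredient dose. Weeds were treated at 0.5-leaf stage after sowing or tuber planting; 2-leaf rice 4 days post-transplant. Control scored visually, 0 untreated to 100 complete kill, weeds day 14, rice day 21.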

[2] = system: soybean (Glycine max Merr.), GLXMA; test: Test Example 2 post-emergence (foliage treatment) herbicidal activity, GLXMA; conditions: 63 g a.i./ha
Procedure, shortened: (§2)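 Each species was evaluated for growth suppression by eye, 0% matching untreated and 100% meaning death, some 20 to 23 days after a single post-emergence foliar treatment applied in 500 L/ha of water carrying 0.1% (v/v) agricultural spreader.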

[3] = system: green foxtail (Setaria viridis L.), SETVI; test: Test Example 2 post-emergence (foliage treatment) herbicidal activity, SETVI; conditions: 63 g a.i./ha
Procedure, shortened: as §2

[4] = system: crabgrass (Digitaria sanguinalis L.): DIGSA; test: Test Example 1 pre-emergence herbicidal activity, DIGSA; conditions: visually observed 20th to 23rd day after application
Procedure, shortened: (§3)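 Scoring was visual growth control (0 = untreated, 100 = complete kill) on days 20–23 post-application. Treatment came as a pre-emergence spray one day after sowing in upland soil, using wettable powder or emulsifiable concentrate diluted in 500 L/ha water at predetermined active-ingredient amounts.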

[5] = system: soybean (Glycine max Merr.): GLXMA; test: Test Example 1 pre-emergence herbicidal activity, GLXMA; conditions: visually observed 20th to 23rd day after application
Procedure, shortened: as §3

[6] = system: green foxtail (Setaria viridis L.): SETVI; test: Test Example 1 pre-emergence herbicidal activity, SETVI; conditions: visually observed 20th to 23rd day after application
Procedure, shortened: as §3

[7] = system: velvetleaf (Abutilon theophrasti): ABUTH; test: Test Example 1 pre-emergence herbicidal activity, ABUTH; conditions: visually observed 20th to 23rd day after application
Procedure, shortened: as §3

[8] = system: rice (Oryza sativa L.: ORYSA); test: Test Example 3 water application herbicidal activity (paddy), transplanted rice ORYSA; conditions: 63 g a.i./ha, water application 4th day after transplantation of 2 leaf stage rice, visually observed 21st day after application; 0 = untreated control, 100 = complete kill
Procedure, shortened: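 Rice at 2-leaf stage is transplanted into flooded puddled soil and treated by water application 4 days later, at a predetermined active-ingredient dose. Crop injury is rated visually as growth control (0–100%) 21 days after treatment.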

[9] = system: japanese bulrush (Scirpus juncoides: SCPJO); test: Test Example 3 water application herbicidal activity (paddy), SCPJO; conditions: 63 g a.i./ha, water application under submerged condition at 0.5 leaf stage, visually observed 14th day after application; 0 = untreated control, 100 = complete kill
Procedure, shortened: as §1

[10] = system: barnyardgrass (Echinochloa crus-galli L.), ECHCG; test: Test Example 2 post-emergence (foliage treatment) herbicidal activity, ECHCG; conditions: 63 g a.i./ha
Procedure, shortened: (§4)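 Visual rating of growth control, from 0 (untreated-like) to 100 (complete kill), was done 20–23 days after post-emergence spraying. Wettable powder or emulsifiable concentrate was diluted to 500 L/ha with 0.1% (v/v) spreader. Leaf stages at application were 1.1-2.1 (ECHCG), 1.0-2.0 (DIGSA), 0.1-1.5 (AMARE) and 1.0-2 (ORYSA).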

[11] = system: prickly sida (Sida spinosa L.), SIDSP; test: Test Example 2 post-emergence (foliage treatment) herbicidal activity, SIDSP; conditions: 63 g a.i./ha
Procedure, shortened: as §2

[12] = system: wheat (Triticum aestivum L.), TRZAX; test: Test Example 2 post-emergence (foliage treatment) herbicidal activity, TRZAX; conditions: 63 g a.i./ha
Procedure, shortened: as §2

[13] = system: prickly sida (Sida spinosa L.): SEDSP; test: Test Example 1 pre-emergence herbicidal activity, SIDSP; conditions: visually observed 20th to 23rd day after application
Procedure, shortened: as §3

[14] = system: wheat (Triticum aestivum L.): TRZAX; test: Test Example 1 pre-emergence herbicidal activity, TRZAX; conditions: visually observed 20th to 23rd day after application
Procedure, shortened: as §3

[15] = system: velvetleaf (Abutilon theophrasti), ABUTH; test: Test Example 2 post-emergence (foliage treatment) herbicidal activity, ABUTH; conditions: 63 g a.i./ha
Procedure, shortened: as §2

[16] = system: rice (Oryza sativa L.): ORYSA; test: Test Example 1 pre-emergence herbicidal activity, ORYSA; conditions: visually observed 20th to 23rd day after application
Procedure, shortened: as §3

[17] = system: redroot pigweed (Amaranthus retroflexus L.), AMARE; test: Test Example 2 post-emergence (foliage treatment) herbicidal activity, AMARE; conditions: 63 g a.i./ha
Procedure, shortened: as §4

[18] = system: crabgrass (Digitaria sanguinalis L.), DIGSA; test: Test Example 2 post-emergence (foliage treatment) herbicidal activity, DIGSA; conditions: 63 g a.i./ha
Procedure, shortened: as §4

[19] = system: corn (Zea mays L.): ZEAMX; test: Test Example 1 pre-emergence herbicidal activity, ZEAMX; conditions: visually observed 20th to 23rd day after application
Procedure, shortened: as §3

[20] = system: barnyardgrass (Echinochiloa oryzicola: ECHOR); test: Test Example 3 water application herbicidal activity (paddy), ECHOR; conditions: 63 g a.i./ha, water application under submerged condition at 0.5 leaf stage, visually observed 14th day after application; 0 = untreated control, 100 = complete kill
Procedure, shortened: as §1

[21] = system: corn (Zea mays L.), ZEAMX; test: Test Example 2 post-emergence (foliage treatment) herbicidal activity, ZEAMX; conditions: 63 g a.i./ha
Procedure, shortened: as §2

[22] = system: rice (Oryza sativa L.), ORYSA; test: Test Example 2 post-emergence (foliage treatment) herbicidal activity, ORYSA; conditions: 63 g a.i./ha
Procedure, shortened: as §4

[23] = system: barnyardgrass (Echinochloa crus-galli L.): ECHCG; test: Test Example 1 pre-emergence herbicidal activity, ECHCG; conditions: visually observed 20th to 23rd day after application
Procedure, shortened: as §3

[24] = system: redroot pigweed (Amaranthus retroflexus L.): AMARE; test: Test Example 1 pre-emergence herbicidal activity, AMARE; conditions: visually observed 20th to 23rd day after application
Procedure, shortened: as §3

Row | Compound | growth controlling degrees (%) SAGPY [1] | growth controlling degree, GLXMA [2] | growth controlling degree, SETVI [3] | growth controlling degrees (%) ORYSA [8] | growth controlling degrees (%) SCPJO [9] | growth controlling degree, ECHCO [10] | growth controlling degree, SIDSP [11] | growth controlling degree, TRZAX [12] | growth controlling degree, ABUTH [15] | growth controlling degree, AMARE [17] | growth controlling degree, DIGSP [18] | growth controlling degrees (%) ECHOR [20] | growth controlling degree, ZEAMX [21] | growth controlling degree, ORYSA [22] | Pre-emergence Herbicidal Activity DIGSP (growth controlling degree) ([4]; Rate 63 g a.i./ha) | Pre-emergence Herbicidal Activity GLXMA (growth controlling degree) ([5]; Rate 63 g a.i./ha) | Pre-emergence Herbicidal Activity SETVI (growth controlling degree) ([6]; Rate 63 g a.i./ha) | Pre-emergence Herbicidal Activity ABUTH (growth controlling degree) ([7]; Rate 63 g a.i./ha) | Pre-emergence Herbicidal Activity SIDSP (growth controlling degree) ([13]; Rate 63 g a.i./ha) | Pre-emergence Herbicidal Activity TRZAX (growth controlling degree) ([14]; Rate 63 g a.i./ha) | other results
1 | COc1ccc(OC(=O)N(C(=O)Oc2ccc(OC)cc2)c2c(OC)c(Cl)cc(F)c2-c2nn(C)c(OC(F)F)c2Cl)cc1 [Compound 1-65] | 0% | 10% | 0% | 20% | 0% | 0% | 0% | 0% | 0% | 10% | 0% | 50% | 0% | 0% | – | – | – | – | – | – | Pre-emergence Herbicidal Activity DIGSP (growth controlling degree) ([4]; Rate 125 g a.i./ha): 0%; Pre-emergence Herbicidal Activity GLXMA (growth controlling degree) ([5]; Rate 125 g a.i./ha): 0%; Pre-emergence Herbicidal Activity SETVI (growth controlling degree) ([6]; Rate 125 g a.i./ha): 10%; Pre-emergence Herbicidal Activity ABUTH (growth controlling degree) ([7]; Rate 125 g a.i./ha): 10%; Pre-emergence Herbicidal Activity SIDSP (growth controlling degree) ([13]; Rate 125 g a.i./ha): 10%; Pre-emergence Herbicidal Activity TRZAX (growth controlling degree) ([14]; Rate 125 g a.i./ha): 0%; Pre-emergence Herbicidal Activity ORYSA (growth controlling degree) ([16]; Rate 125 g a.i./ha): 0%; Pre-emergence Herbicidal Activity ZEAMX (growth controlling degree) ([19]; Rate 125 g a.i./ha): 0%; Pre-emergence Herbicidal Activity ECHCG (growth controlling degree) ([23]; Rate 125 g a.i./ha): 0%; Pre-emergence Herbicidal Activity AMARE (growth controlling degree) ([24]; Rate 125 g a.i./ha): 20%
2 | Cn1nc(-c2c(F)cc(Cl)c(OC(F)F)c2NC=O)c(Cl)c1OC(F)F [Compound 1-82] | 100% | 90% | 100% | 60% | 98% | 100% | 100% | 60% | 100% | 100% | 100% | 100% | 70% | 70% | 100% | 10% | 100% | 100% | 100% | 60% | Pre-emergence Herbicidal Activity ORYSA (growth controlling degree) ([16]; Rate 63 g a.i./ha): 80%; Pre-emergence Herbicidal Activity ZEAMX (growth controlling degree) ([19]; Rate 63 g a.i./ha): 40%; Pre-emergence Herbicidal Activity ECHCG (growth controlling degree) ([23]; Rate 63 g a.i./ha): 100%; Pre-emergence Herbicidal Activity AMARE (growth controlling degree) ([24]; Rate 63 g a.i./ha): 100%
3 | Cn1nc(-c2c(F)cc(Cl)c(OC(F)F)c2NC(=O)C(F)(F)F)c(Cl)c1OC(F)F [Compound 1-83] | 80% | 60% | 100% | 50% | 95% | 100% | 100% | 10% | 100% | 100% | 100% | 100% | 80% | 50% | 100% | 60% | 100% | 80% | 100% | 10% | Pre-emergence Herbicidal Activity ORYSA (growth controlling degree) ([16]; Rate 63 g a.i./ha): 60%; Pre-emergence Herbicidal Activity ZEAMX (growth controlling degree) ([19]; Rate 63 g a.i./ha): 20%; Pre-emergence Herbicidal Activity ECHCG (growth controlling degree) ([23]; Rate 63 g a.i./ha): 90%; Pre-emergence Herbicidal Activity AMARE (growth controlling degree) ([24]; Rate 63 g a.i./ha): 100%
4 | C#CCN(C=O)c1c(OC(F)F)c(Cl)cc(F)c1-c1nn(C)c(OC(F)F)c1Cl [Compound 1-85] | 70% | 60% | 100% | 70% | 60% | 80% | 95% | 40% | 100% | 100% | 80% | 100% | 40% | 60% | 100% | 0% | 70% | 30% | 70% | 0% | Pre-emergence Herbicidal Activity ORYSA (growth controlling degree) ([16]; Rate 63 g a.i./ha): 10%; Pre-emergence Herbicidal Activity ZEAMX (growth controlling degree) ([19]; Rate 63 g a.i./ha): 10%; Pre-emergence Herbicidal Activity ECHCG (growth controlling degree) ([23]; Rate 63 g a.i./ha): 60%; Pre-emergence Herbicidal Activity AMARE (growth controlling degree) ([24]; Rate 63 g a.i./ha): 100%
